In US11813277B2, “Methods and agents for modulating inflammation” (The Regents of the University of California, priority 2018, dated 2023):

System: phosphate (Pi) transporter
Assay: Phosphate transporter assay (mitochondrial swelling)
Format: biochemical, rat
Settings: 250 μM etomoxir, 100 μM NEM, 10 μM mersalyl
Experimental: Phosphate transport was measured by monitoring swelling of de-energized mitochondria in isotonic potassium phosphate medium based upon principles described by Coty, W. A. and Pedersen, P. L. (1975) Phosphate transport in rat liver mitochondria. Kinetics, inhibitor sensitivity, energy requirements, and labeled components. Mol Cell Biochem. 9, 109-24. As the phosphate carrier acts as electroneutral symporter with protons, the process is self-restricting due to generation of an opposing pH gradient. […] In the presence of nigericin, the proton fluxes cycle resulting in electro- and pH-neutral transport of potassium phosphate down its concentration gradient into the mitochondrial matrix, resulting in osmotic accumulation of water. Under these conditions, transport is limited by the activity of phosphate carrier, and can be recorded as mitochondrial swelling (a decrease in light scattering).
The measurements were performed in an LS-50B spectrofluorometer (Perkin-Elmer) at 540 nm. Assay medium contained 125 mM potassium phosphate, pH 7.2, 0.5 mM EGTA, and 2 μM rotenone. Mouse liver mitochondria (0.5 mg/ml) were treated with 250 μM etomoxir, 100 μM N-ethylmaleimide (NEM) (Klingenberg, M., Durand, R., and Guerin, B. (1974) Analysis of the reactivity of SH-reagents with the mitochondrial phosphate carrier. Eur J Biochem, 42, 135-150) or 10 μM mersalyl (Paradies, G. and Ruggiero, F. M. (1991) Effect of aging on the activity of the phosphate carrier and on the lipid composition in rat liver mitochondria. Arch Biochem Biophys. 284, 332-337) and the reaction was started with 5 μM nigericin. Typical traces from 3 experiments are shown. To establish the maximally swollen state of mitochondria, 80 μg/ml alamethicin was used.

## CCOC(=O)[C@@]1(CCCCCCOc2ccc(Cl)cc2)CO1 [etomoxir]
  Pi transporter activity (rate of swelling): does not inhibit
Listed as Etomoxir
  Pi transporter activity (rate of swelling): does not affect the rate of swelling
